# Assay results: patent US7419950B2, “Methods of inhibiting ectopic calcification” (University of Washington, priority 1998, dated 2008)
# Columns and labels:
# [1] = tested on: bovine aortic smooth muscle cells (BASMC); experiment: Calcium deposition by cultured bovine aortic smooth muscle cells in calcification medium; assay type: cell-based; conditions: for inhibition of calcium deposition (in words): equimolar concentrations as were effective for osteopontin
# Method: In order to examine calcification by cultured BASMC smooth muscle cells, calcification was induced by the method described by Shioi et al., Arterioscler Thromb Vasc Biol., 15:2003-2009 (1995), which is incorporated herein by reference. Briefly, BASMC were cultured in growth medium for 4 days, and then switched to calcification medium (DMEM (high glucose, 4.5 g/L) containing 15% FBS and 10 mM sodium pyruvate in the presence of 10 mM of β-glycerophosphate (unless otherwise stated), 10^-7 M insulin, and 50 μg/ml of ascorbic acid, supplemented with 100 U/ml of penicillin and 100 μg/ml of streptomycin) for 10 days. The medium was replaced with fresh medium twice a week. In the time course experiments, the beginning day of culture in calcification medium was defined as day 0.
# (§1) Calcification was assessed by a modification of the method described by Jono et al., Arterioscler. Thromb. Vasc. Biol. 17:1135-1142 (1997) which is incorporated herein by reference. Briefly, the cultures were decalcified with 0.6 N HCl for 24 hours. The calcium content of the HCl supernatant was determined calorimetrically by the o-cresolphthalein complexone method (Calcium Kit, Sigma). After decalcification, the cultures were washed with phosphate-buffered saline (PBS) and solubilized with 0.1 N NaOH/0.1% sodium dodecyl sulfate(SDS). Total protein content was measured with a Bio-Rad Protein Assay Kit (Bio-Rad). The calcium content of the cell layer was normalized to protein content. Phosphorus and calcium concentrations in the culture medium were measured by the phosphomolybdate complex method (Phosphorus Kit, Sigma) and the o-cresolphthalein complexone method (Calcium Kit, Sigma), respectively. Values were expressed as the mean +/− SEM, n=3.
# To examine the effect of osteopontin on BASMC-mediated calcification in vitro, soluble osteopontin or vehicle alone (0.1 mM sodium citrate) was added to the calcifying BASMC cultures. […] In contrast, vehicle alone had no effect (FIG. 2a).
# To exclude the possibility that contaminants in the osteopontin preparation were responsible for the observed inhibitory effect, immunodepletion experiments were performed. Medium containing 10 μg/ml osteopontin was mixed with […] anti-osteopontin (OP-199) or normal goat IgG, prepared by the method described by Liaw et al., supra (1994) and incubated for 1 hr at room temperature. 250 mg protein-A-sepharose was added and incubated for 1 hr at room temperature. The antibody-protein A sepharose complexes were removed by centrifugation, and the remaining supernatant diluted twenty-fold for use in the calcification studies. Unpaired Student's t test was employed to compare groups and a probability value (p) value less than 0.05 was considered significant.
# [2] = molecular target: T1, alkaline phosphatase (Bos taurus, UniProt P09487); experiment: Cellular alkaline phosphatase activity of BASMC cultures; assay type: cell-based, bovine; conditions: cells in calcification medium
# T1 construct: cellular proteins were solubilized with 1% Triton X-100 in 0.9% NaCl and centrifuged; endogenous in cells; host or cells: BASMC (bovine aortic smooth muscle cells), detergent lysate supernatant
# T1 sequence (P09487 18-499): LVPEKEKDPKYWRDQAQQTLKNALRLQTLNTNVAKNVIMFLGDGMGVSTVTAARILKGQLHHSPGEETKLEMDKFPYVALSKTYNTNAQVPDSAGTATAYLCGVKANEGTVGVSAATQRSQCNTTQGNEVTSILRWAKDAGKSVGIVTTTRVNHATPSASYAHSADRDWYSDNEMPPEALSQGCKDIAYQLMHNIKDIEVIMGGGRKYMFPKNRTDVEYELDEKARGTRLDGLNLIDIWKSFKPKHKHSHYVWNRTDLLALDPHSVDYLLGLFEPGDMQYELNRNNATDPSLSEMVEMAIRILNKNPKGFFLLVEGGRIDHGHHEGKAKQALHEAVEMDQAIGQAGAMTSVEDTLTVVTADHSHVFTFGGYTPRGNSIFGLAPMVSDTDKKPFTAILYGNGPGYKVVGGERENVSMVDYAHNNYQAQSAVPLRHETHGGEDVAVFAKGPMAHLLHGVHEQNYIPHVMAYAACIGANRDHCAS
# Method: For cellular alkaline phosphatase activity measurements, cells were cultured in calcification medium in the presence of various concentrations of osteopontin. Cells were washed three times with PBS and cellular proteins were solubilized with 1% Triton X-100 in 0.9% NaCl and centrifuged. Supernatants were assayed for alkaline phosphatase activity by the method described by Bessey et al., J. Biol. Chem. 164:321-329 (1946), which is incorporated herein by reference. One unit was defined as the activity producing 1 nmol of p-nitrophenol within 1 minute. Protein concentrations were determined with a Bio-Rad protein assay kit (Bio-Rad). The data were normalized to the protein content of the cell layer.
# [3] = tested on: BASMC; experiment: Phosphorus concentration in BASMC culture medium; assay type: cell-based, bovine; conditions: BASMC calcification medium
# Method: as §1
# [4] = tested on: human vascular smooth muscle cells (HSMC); experiment: Calcium deposition by human vascular smooth muscle cells in high-phosphate calcification medium; assay type: cell-based; conditions: for calcium deposition into HSMC matrix (in words): high-phosphate calcification medium
# Method: as §1
# HSMC were routinely subcultured in growth medium. At confluence, cells were switched to calcification medium (DMEM containing 15% FBS and 1 mM sodium pyruvate in the presence of 2 mM inorganic phosphate supplemented with 100 U/ml penicillin and 100 μg/ml of streptomycin) for up to 14 days. The medium was replaced with fresh medium every 2 days. For time-course experiments, the first day of culture in calcification medium was defined as day 0. Calcium deposition was quantified and assessed histochemically and cytochemically as described above in Example I.
# Osteopontin proteins and functional fragments were assayed for their ability to inhibit ectopic calcification using the HSMC calcification system described in Example III. The osteopontin proteins include full-length human recombinant osteopontin as well as recombinant N-terminal and C-terminal human osteopontin fragments similar to those that would be formed following thrombin cleavage of the native protein, as described by Smith et al., supra (1996). Two N-terminal fragments were used, 10N and 30N, which refer to two differ splice variants of osteopontin. The 30N splice variant contains an additional 14 amino acids, […] (SEQ ID NO: 7), which correspond to exon 5 (amino acids 59-72). The ION fragment contains amino acids 17-58 and 73-160 of native osteopontin, whereas the 30N fragment contains amino acids 17-169. The 10C fragment contains the C-terminal domain of osteopontin, amino acids 170-317.
# Recombinant osteopontin and its functional fragments were assayed for their ability to inhibit ectopic calcification of human smooth muscle cells (HSMC) either prior to or following phosphorylation by casein kinase II. The amount of phosphate incorporated into osteopontin (OPN) and its fragments achieved by casein kinase II phosphorylation is shown in FIG. 5b.
compound,measurement,setting,value
"fibronectin: bovine fibronectin (TELIOS), RGD-containing extracellular matrix molecule [reference compound]",inhibition of calcium deposition (in words),[1],unable to inhibit calcium deposition
"c1ccc([C@H]2CN3CCSC3=N2)cc1 [levamisole, reference compound]",IC50,"[1]; Bos taurus, BASMC cultures in calcification medium, read-out: half-maximal inhibition of calcium deposition",50 µM
same,calcium deposition in BASMC cultures (in words),[1]; levamisole versus vehicle,dose-dependently inhibited
same,alkaline phosphatase activity of BASMC cultures (in words),[2],dose-dependently inhibited
same,phosphorus concentration of the culture medium (in words),[3],reduced
O=P(O)(O)O [inorganic phosphate],calcium deposition,"[4]; 2 mM inorganic phosphate, day 9, mean +/-SEM",210.3+/−2.4 μg/mg protein
vitronectin [reference compound],inhibition of calcium deposition (in words),[1],unable to inhibit calcium deposition
"osteopontin: Rat osteopontin purified from the conditioned medium of rat neonatal smooth muscle cell cultures, >95% pure",inhibition of BASMC culture calcification,"[1]; 0.5 ug/ml added on day 7 after start of mineralization, read at day 10",50%
same,fold inhibition of calcification versus vehicle,[1]; 0.5 ug/ml in medium,18 fold
same,inhibition of calcification,"[1]; 0.5 μg/ml, 10 days",approximately 90%
same,calcium deposition in cell layer,"[1]; 0.5 ug/ml, no immunodepletion",0.33 ± 0.06 µmol/mg
same,inhibition of calcification (in words),"[1]; 5 μg/ml, 10 days",almost completely inhibited
same,calcification of BASMC (in words),"[1]; 0.05, 0.5 and 5 μg/ml, assessed at 10 days",dose-dependently inhibited
same,dependence of inhibitory effect on mineralization on calcium (in words),"[1]; medium supplemented with increasing calcium, 10 days",calcium dependent
same,calcium deposition in cell layer,[1]; osteopontin solution immunodepleted with anti-osteopontin antibody (OP-199),2.60 ± 0.43 µmol/mg
same,calcium deposition in cell layer,[1]; osteopontin solution treated with normal goat IgG,0.49 ± 0.10 µmol/mg
same,alkaline phosphatase activity of BASMC cultures (in words),[2],did not affect
same,phosphorus concentration of the culture medium (in words),[3],did not reduce
OPN: full-length human recombinant osteopontin prepared as a His-tagged protein; tested with or without casein kinase II phosphorylation,"inhibition of ectopic calcification, dose relation (in words)",[4]; 0.1 μg/ml to 5.0 μg/ml,dose-dependent
same,time to significantly reduced calcium deposition,[4]; after addition to HSMC,≤ 60 min
same,inhibition of calcification,[4]; by 90 minutes following addition,approximately 50%
same,calcium deposition into HSMC matrix (in words),[4]; non-phosphorylated forms,do not significantly affect
same,HSMC calcification (in words),"[4]; phosphorylated by casein kinase II, 15 nM",able to inhibit HSMC calcification
same,HSMC calcification (in words),[4]; phosphorylated protein dephosphorylated with alkaline phosphatase (ALP),reverses this inhibitory ability
same,calcium deposition into HSMC matrix (in words),[4]; protein phosphorylated by casein kinase II,reduced to basal levels
O=P(O)(O)OC(CO)CO [β-glycerophosphate],EC50,"[1]; BASMC, initial concentration of β-glycerophosphate in medium, read-out: concentration giving half-maximal calcium deposition",~4000 µM
